Reference: patent US20120095024A1, “TOLUIDINE SULFONAMIDES AND THEIR USE” (Elara Pharmaceuticals GmbH, priority 2008, published 2012)

Tested on: MCF7 cells
Assay: Cell proliferation assay (ATPlite), MCF-7
Assay type: cell-based, human
Conditions: inhibition of cell proliferation, 72 h
Method: MCF-7 human breast adenocarcinoma cells and HL-60 acute promyelocytic leukaemia cells were obtained from ATCC (LGC Promochem). HG-1 multiple myeloma cells were obtained from Dr. D. Hose (DKFZ Heidelberg). The CellSensor® HRE-bla HCT116 cell line (colorectal carcinoma) was obtained from Invitrogen.
Cells were grown under humidified 95% air, 5% CO2 at 37° C. in Dulbecco's modified Eagle's medium (DMEM: MCF-7) or RPMI 1640 medium (RPMI: HL-60, HG-1) supplemented with 10% fetal bovine serum (FBS), 100 U/ml penicillin and 100 μg/ml streptomycin, 2 mM L-glutamine, and 2 ng/ml IL-6 (for the HG-1 cell line only). The HCT116 cell line was grown under the same atmospheric conditions in McCoy's 5A medium supplemented with 10% FBS and penicillin/streptomycin as above, in addition to blasticidin as a selection marker at a final concentration of 5 μg/ml.
Cell proliferation experiments were carried out in 96-well tissue culture plates with seeding of 2000 cells/well (MCF-7) or 1000 cells/well (HL-60, HG-1) in 100 μl of the relevant medium. Cells were subsequently incubated under the conditions mentioned for 24 h prior to addition of compounds.
For the determination of compound EC50 values, 10 μl compounds at 11× concentrations in 5.5% DMSO were added to the wells at various concentrations yielding a final constant percentage of 0.5% DMSO at the desired 1× compound concentration. As a positive control, cells were treated with 5.5% DMSO. The cells were then incubated for a further 72 h prior to the measurement.
To determine the degree of inhibition of cell proliferation, cells were treated with ATPlite solution according to the manufacturer's instructions (PerkinElmer, ATPlite 1-step Luminescence ATP Detection Assay System) and luciferase readout measured on an Envision HTS multilabel plate reader (PerkinElmer) in luminescence mode according to established protocols. Raw data were imported into an ActivityBase database (IDBS, ID Business Solutions) and EC50 values calculated using the IDBS program ActivityBase XE. Table 2A and 2B show the IC50 values obtained in the above-outlined cell proliferation assay for exemplary compounds of the invention.

## Cc1ccc(S(=O)(=O)Nc2cc(-c3ccc(C(F)(F)F)cn3)ccc2C)cc1 [Example 45, 4-Methyl-N-[2-methyl-5-(5-trifluoromethyl-pyridin-2-yl)-phenyl]-benzenesulfonamide]
Homo sapiens
  EC50: 1000 to 10000 nM

## Cc1ccc(S(=O)(=O)Nc2cc(-c3ccc(F)c(C)n3)ccc2C)cc1 [Example 46, N-[5-(5-Fluoro-6-methyl-pyridin-2-yl)-2-methyl-phenyl]-4-methyl-benzenesulfonamide]
Homo sapiens
  EC50: 500 to 1000 nM

## Cc1ccc(S(=O)(=O)Nc2cc(-c3c(C)noc3C)ccc2C)cc1 [Example 48, N-[5-(3,5-Dimethyl-isoxazol-4-yl)-2-methyl-phenyl]-4-methyl-benzenesulfonamide]
Homo sapiens
  EC50: < 500 nM

## COc1ccc(S(=O)(=O)Nc2cc(-n3cccc3C)ccc2C)cc1 [Example 50, 4-Methoxy-N-[2-methyl-5-(2-methyl-pyrrol-1-yl)-phenyl]-benzenesulfonamide]
Homo sapiens
  EC50: < 500 nM

## Cc1ccc(S(=O)(=O)Nc2cc(-c3cccc(C#N)n3)ccc2C)cc1 [Example 52, N-[5-(6-Cyano-pyridin-2-yl)-2-methyl-phenyl]-4-methyl-benzenesulfonamide]
Homo sapiens
  EC50: 500 to 1000 nM

## Cc1ccc(S(=O)(=O)Nc2cc(-c3ccc(F)cn3)ccc2C)cc1 [Example 53, N-[5-(5-Fluoro-pyridin-2-yl)-2-methyl-phenyl]-4-methyl-benzenesulfonamide]
Homo sapiens
  EC50: < 500 nM

## CC(=O)c1ccc(-c2ccc(C)c(NS(=O)(=O)c3ccc(C)cc3)c2)nc1 [Example 54, N-[5-(5-Acetyl-pyridin-2-yl)-2-methyl-phenyl]-4-methyl-benzenesulfonamide]
Homo sapiens
  EC50: 1000 to 10000 nM

## Cc1ccc(S(=O)(=O)Nc2cc(-c3ccc([N+](=O)[O-])cn3)ccc2C)cc1 [Example 55, 4-Methyl-N-[2-methyl-5-(5-nitro-pyridin-2-yl)-phenyl]-benzenesulfonamide]
Homo sapiens
  EC50: < 500 nM

## COc1ccc(S(=O)(=O)Nc2cc(-c3cccc(C#N)c3)ccc2C)cc1 [Example 57, N-(3′-Cyano-4-methyl-biphenyl-3-yl)-4-methoxy-benzenesulfonamide]
Homo sapiens
  EC50: 500 to 1000 nM

## COc1ccc(S(=O)(=O)Nc2cc(-c3ccccc3C#N)ccc2C)cc1 [Example 58, N-(2′-Cyano-4-methyl-biphenyl-3-yl)-4-methoxy-benzenesulfonamide]
Homo sapiens
  EC50: 500 to 1000 nM

## Cc1ccc(S(=O)(=O)Nc2cc(-c3sccc3C#N)ccc2C)cc1 [Example 59, N-[5-(3-Cyano-thiophen-2-yl)-2-methyl-phenyl]-4-methyl-benzenesulfonamide]
Homo sapiens
  EC50: 500 to 1000 nM

## COc1ccc(S(=O)(=O)Nc2cc(-c3ccc(C#N)nc3)ccc2C)cc1 [Example 61, N-[5-(6-Cyano-pyridin-3-yl)-2-methyl-phenyl]-4-methoxy-benzenesulfonamide]
Homo sapiens
  EC50: < 500 nM

## COc1ccc(S(=O)(=O)Nc2cc(-c3ccsc3C#N)ccc2C)cc1 [Example 62, N-[5-(2-Cyano-thiophen-3-yl)-2-methyl-phenyl]-4-methoxy-benzenesulfonamide]
Homo sapiens
  EC50: < 500 nM

## Cc1ccc(S(=O)(=O)Nc2cc(-c3ncc(C#N)cn3)ccc2C)cc1 [Example 64, N-[5-(5-Cyano-pyrimidin-2-yl)-2-methyl-phenyl]-4-methyl-benzenesulfonamide]
Homo sapiens
  EC50: 500 to 1000 nM

## COc1ccc(S(=O)(=O)Nc2cc(-c3ccc(C#N)c(C#N)c3)ccc2C)cc1 [Example 65, N-(3′,4′-Dicyano-4-methyl-biphenyl-3-yl)-4-methoxy-benzenesulfonamide]
Homo sapiens
  EC50: < 500 nM

## Cc1ccc(S(=O)(=O)Nc2cc(-c3cccc(N(C)C)n3)ccc2C)cc1 [Example 66, N-[5-(6-Dimethylamino-pyridin-2-yl)-2-methyl-phenyl]-4-methyl-benzenesulfonamide]
Homo sapiens
  EC50: 500 to 1000 nM

## Cc1ccc(S(=O)(=O)Nc2cc(-c3cc(C)cc(C)n3)ccc2C)cc1 [Example 67, N-[5-(4,6-Dimethyl-pyridin-2-yl)-2-methyl-phenyl]-4-methyl-benzenesulfonamide]
Homo sapiens
  EC50: 1000 to 10000 nM

## Cc1ccc(S(=O)(=O)Nc2cc(-c3cscc3C#N)ccc2C)cc1 [Example 69, N-[5-(4-Cyano-thiophen-3-yl)-2-methyl-phenyl]-4-methyl-benzenesulfonamide]
Homo sapiens
  EC50: < 500 nM

## Cc1ccc(S(=O)(=O)Nc2cc(-c3occc3C#N)ccc2C)cc1 [Example 70, N-[5-(3-Cyo-furan-2-yl)-2-methyl-phenyl]-4-methyl-benzenesulfonamide]
  EC50: < 500 nM

## COc1ccc(S(=O)(=O)Nc2cc(-c3ccnc(C#N)c3)ccc2C)cc1 [Example 75, N-[5-(2-Cyano-pyridin-4-yl)-2-methyl-phenyl]-4-methoxy-benzenesulfonamide]
Homo sapiens
  EC50: 500 to 1000 nM

## Cc1ccc(S(=O)(=O)Nc2cc(-c3ccc([N+](=O)[O-])o3)ccc2C)cc1 [Example 76, 4-Methyl-N-[2-methyl-5-(5-nitro-furan-2-yl)-phenyl]-benzenesulfonamide]
Homo sapiens
  EC50: < 500 nM

## Cc1ccc(-c2ccc(C#N)s2)cc1NS(=O)(=O)c1ccc(Cl)cc1 [Example 77, 4-Chloro-N-[5-(5-cyano-thiophen-2-yl)-2-methyl-phenyl]-benzenesulfonamide]
Homo sapiens
  EC50: < 500 nM

## Cc1ccc(-c2ccc(C#N)s2)cc1NS(=O)(=O)c1ccc(C(F)(F)F)cc1 [Example 78, N-[5-(5-Cyano-thiophen-2-yl)-2-methyl-phenyl]-4-trifluoromethyl-benzenesulfonamide]
Homo sapiens
  EC50: 500 to 1000 nM

## Cc1ccc(-c2ccc(C#N)s2)cc1NS(=O)(=O)c1ccc(OC(F)(F)F)cc1 [Example 79, N-[5-(5-Cyano-thiophen-2-yl)-2-methyl-phenyl]-4-trifluoromethoxy-benzenesulfonamide]
Homo sapiens
  EC50: 1000 to 10000 nM

## COc1ccc(-c2ccc(C)c(NS(=O)(=O)c3ccc(OC)cc3)c2)cc1 [Example 81, 4-Methoxy-N-(4′-methoxy-4-methyl-biphenyl-3-yl)-benzenesulfonamide]
Homo sapiens
  EC50: < 500 nM

## COc1ccc(S(=O)(=O)Nc2cc(-c3ccc(SC)cc3)ccc2C)cc1 [Example 82, 4-Methoxy-N-(4-methyl-4′-methylsulfanyl-biphenyl-3-yl)-benzenesulfonamide]
Homo sapiens
  EC50: 1000 to 10000 nM

## COc1ccc(S(=O)(=O)Nc2cc(-c3ccc(OC(F)(F)F)cc3)ccc2C)cc1 [Example 83, 4-Methoxy-N-(4-methyl-4′-trifluoromethoxy-biphenyl-3-yl)-benzenesulfonamide]
Homo sapiens
  EC50: 1000 to 10000 nM

## C#Cc1ccc(-c2ccc(C)c(NS(=O)(=O)c3ccc(C)cc3)c2)cc1 [Example 84, N-(4′-Ethynyl-4-methyl-biphenyl-3-yl)-4-methyl-benzenesulfonamide]
Homo sapiens
  EC50: 500 to 1000 nM

## COc1ccc(S(=O)(=O)Nc2cc(-c3ccc(C#N)cc3)ccc2C)cc1F [Example 85, N-(4′-Cyano-4-methyl-biphenyl-3-yl)-3-fluoro-4-methoxy-benzenesulfonamide]
Homo sapiens
  EC50: < 500 nM

## Cc1ccc(-c2ccc(C#N)cc2)cc1NS(=O)(=O)c1ccc([N+](=O)[O-])cc1 [Example 86, N-(4′-Cyano-4-methyl-biphenyl-3-yl)-4-nitro-benzenesulfonamide]
Homo sapiens
  EC50: 1000 to 10000 nM

## Cc1ccc(-c2ccc(C#N)cc2)cc1NS(=O)(=O)c1ccc(N)cc1 [Example 87, 4-Amino-N-(4′-cyano-4-methyl-biphenyl-3-yl)-benzenesulfonamide]
Homo sapiens
  EC50: < 500 nM

## Cc1ccc(S(=O)(=O)Nc2cc(-c3ccc(C#N)cc3)ccc2C)cc1F [Example 88, N-(4′-Cyano-4-methyl-biphenyl-3-yl)-3-fluoro-4-methyl-benzenesulfonamide]
Homo sapiens
  EC50: < 500 nM

## COc1ccc(S(=O)(=O)Nc2cc(-c3ccc(C#N)c(OC)c3)ccc2C)cc1 [Example 89, N-(4′-Cyano-3′-methoxy-4-methyl-biphenyl-3-yl)-4-methoxy-benzenesulfonamide]
Homo sapiens
  EC50: < 500 nM

## COc1ccc(S(=O)(=O)Nc2cc(-c3ccc(C#N)c(O)c3)ccc2C)cc1 [Example 90, N-(4′-Cyano-3′-hydroxy-4-methyl-biphenyl-3-yl)-4-methoxy-benzenesulfonamide]
Homo sapiens
  EC50: < 500 nM

## Cc1ccc(-c2ccc(C#N)s2)cc1NS(=O)(=O)c1ccc(F)cc1 [Example 91, N-[5-(5-Cyano-thiophen-2-yl)-2-methyl-phenyl]-4-fluoro-benzenesulfonamide]
Homo sapiens
  EC50: 500 to 1000 nM

## COc1ccc(S(=O)(=O)Nc2cc(-c3ccc(C#N)s3)ccc2C)cc1F [Example 92, N-[5-(5-Cyano-thiophen-2-yl)-2-methyl-phenyl]-3-fluoro-4-methoxy-benzenesulfonamide]
Homo sapiens
  EC50: < 500 nM

## Cc1ccc(-c2ccc(C#N)s2)cc1NS(=O)(=O)c1ccc(N)cc1 [Example 93, 4-Amino-N-[5-(5-cyano-thiophen-2-yl)-2-methyl-phenyl]-benzenesulfonamide]
Homo sapiens
  EC50: < 500 nM

## Cc1ccc(S(=O)(=O)Nc2cc(C)cc(-c3csc(C)c3)c2)cc1 [Example 94, 4-Methyl-N-[3-methyl-5-(5-methyl-thiophen-3-yl)-phenyl]-benzenesulfonamide]
Homo sapiens
  EC50: < 500 nM
